Data on 17 compounds can be found in PubChem BioAssay AID248 (DTP/NCI, 2004).

Several values for one entry are separate records, joined by “and”; a condition that tells them apart may be missing. Identical values can stand only once. Toxic doses and inconclusive results are not listed.

The subject of this test is L1210 leukemia ip in BDF1 mice, survival T/C. Briefly: NCI In Vivo Anticancer Drug Screen. Data for tumor model L1210 Leukemia (intraperitoneal) in B6D2F1 (BDF1) mice. Particulars: endpoint: mean survival time, higher = longer survival. In a few lines: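 Mice bearing the transplanted tumor received compound or vehicle. Survival of the treated group was divided by that of the vehicle-treated control group to give the ratio.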

[1] abbreviates: dose: 100.0 mg/kg/injection, schedule: Q01DX001 (ip), vehicle: saline.
[2] abbreviates: dose: 200.0 mg/kg/injection, schedule: Q01DX001 (ip), vehicle: saline.
The mark [3] stands for this setting: dose: 50.0 mg/kg/injection, schedule: Q04DX003 (ip), vehicle: Klucel (hydroxypropylcellulose) (HPC).
The mark [4] stands for this setting: dose: 100.0 mg/kg/injection, schedule: Q01DX009 (ip), vehicle: Klucel (hydroxypropylcellulose) (HPC).
[5] abbreviates: dose: 100.0 mg/kg/injection, schedule: Q04DX003 (ip), vehicle: Klucel (hydroxypropylcellulose) (HPC).
The mark [6] stands for this setting: dose: 200.0 mg/kg/injection, schedule: Q01DX009 (ip), vehicle: Klucel (hydroxypropylcellulose) (HPC).
Where [7] appears, read: dose: 200.0 mg/kg/injection, schedule: Q04DX003 (ip), vehicle: Klucel (hydroxypropylcellulose) (HPC).
[8] abbreviates: dose: 400.0 mg/kg/injection, schedule: Q01DX009 (ip), vehicle: Klucel (hydroxypropylcellulose) (HPC).
Where [9] appears, read: dose: 50.0 mg/kg/injection, schedule: Q01DX009 (ip), vehicle: saline.
[10] abbreviates: dose: 50.0 mg/kg/injection, schedule: Q04DX002 (ip), vehicle: saline with Tween-80.
The mark [11] stands for this setting: dose: 100.0 mg/kg/injection, schedule: Q04DX002 (ip), vehicle: saline with Tween-80.
Setting [12] is: dose: 100.0 mg/kg/injection, schedule: Q01DX009 (ip), vehicle: saline with Tween-80.
Setting [13] is: dose: 200.0 mg/kg/injection, schedule: Q01DX009 (ip), vehicle: saline with Tween-80.
Where [14] appears, read: dose: 400.0 mg/kg/injection, schedule: Q01DX009 (ip), vehicle: saline with Tween-80.

Consider `C[n+]1ccccc1NC(=O)c1ccc(C(=O)Nc2cccc[n+]2C)cc1`, for which the T/C was 98 % of control (dose: 7.5 mg/kg/injection, schedule: Q01DX Z (ip), vehicle: saline); 100 % of control (dose: 15.0 mg/kg/injection, schedule: Q01DX Z (ip), vehicle: saline); 87 % of control (dose: 30.0 mg/kg/injection, schedule: Q01DX Z (ip), vehicle: saline); 87 % of control (dose: 120.0 mg/kg/injection, schedule: Q01DX Z (ip), vehicle: saline); 91 % of control (dose: 240.0 mg/kg/injection, schedule: Q01DX Z (ip), vehicle: saline).

As for `N/C(N=P(c1ccccc1)(c1ccccc1)c1ccccc1)=N\S(=O)(=O)c1ccc([N+](=O)[O-])cc1`, the T/C runs as follows: (dose: 25.0 mg/kg/injection, schedule: Q04DX002 (ip), vehicle: Klucel (hydroxypropylcellulose) (HPC)) 104 % of control; (dose: 50.0 mg/kg/injection, schedule: Q04DX002 (ip), vehicle: Klucel (hydroxypropylcellulose) (HPC)) 111 % of control; (dose: 100.0 mg/kg/injection, schedule: Q04DX002 (ip), vehicle: Klucel (hydroxypropylcellulose) (HPC)) 96 % of control.

For the compound `COc1ccc(-c2sc(C)c(-c3ccc(OC)cc3)c2C)cc1`, the T/C is 96 % of control under setting [1]; 96 % of control under setting [2]; 94 % of control (dose: 400.0 mg/kg/injection, schedule: Q01DX001 (ip), vehicle: saline).

With `COc1ccc(CCC(C(=O)O)c2ccc(OC)c(OC)c2)cc1OC` (stereo not given), the T/C runs as follows: (dose: 45.0 mg/kg/injection, schedule: Q01DX009 (ip), vehicle: Klucel (hydroxypropylcellulose) (HPC)) 98 % of control and 100 % of control; under setting [3], 96 % of control; (dose: 65.0 mg/kg/injection, schedule: Q01DX009 (ip), vehicle: Klucel (hydroxypropylcellulose) (HPC)) 93 % of control and 100 % of control; under setting [4], 94 % of control and 104 % of control; under setting [5], 103 % of control; (dose: 150.0 mg/kg/injection, schedule: Q01DX009 (ip), vehicle: Klucel (hydroxypropylcellulose) (HPC)) 93 % of control and 102 % of control. The T/C by setting is: under setting [6], 106 % of control; under setting [7], 93 % of control and 96 % of control; under setting [8], 101 % of control; (dose: 400.0 mg/kg/injection, schedule: Q04DX003 (ip), vehicle: Klucel (hydroxypropylcellulose) (HPC)) 98 % of control.

For `C/C=C1/C(=O)Oc2ccccc21`, the T/C by setting is: under setting [9], 97 % of control; (dose: 100.0 mg/kg/injection, schedule: Q01DX009 (ip), vehicle: saline) 102 % of control; (dose: 200.0 mg/kg/injection, schedule: Q01DX009 (ip), vehicle: saline) 94 % of control.

Take `CC(C)(C)c1nc2cc(Cl)c(Cl)cc2[nH]1`: the T/C by setting is: (dose: 75.0 mg/kg/injection, schedule: Q01DX001 (ip), vehicle: other) 102 % of control; (dose: 75.0 mg/kg/injection, schedule: Q01DX009 (ip), vehicle: saline with Tween-80) 96 % of control; (dose: 75.0 mg/kg/injection, schedule: Q04DX003 (ip), vehicle: saline with Tween-80) 103 % of control; (dose: 150.0 mg/kg/injection, schedule: Q01DX001 (ip), vehicle: other) 96 % of control; (dose: 150.0 mg/kg/injection, schedule: Q01DX009 (ip), vehicle: saline with Tween-80) 90 % of control; (dose: 150.0 mg/kg/injection, schedule: Q04DX003 (ip), vehicle: saline with Tween-80) 110 % of control. The T/C was 109 % of control (dose: 300.0 mg/kg/injection, schedule: Q01DX001 (ip), vehicle: other); 103 % of control (dose: 300.0 mg/kg/injection, schedule: Q01DX009 (ip), vehicle: saline with Tween-80); 107 % of control (dose: 300.0 mg/kg/injection, schedule: Q04DX003 (ip), vehicle: saline with Tween-80).

Consider `CO/C=C(\C)C(=O)NC(=O)Nc1ccccc1`, for which the T/C is, setting by setting: (dose: 100.0 mg/kg/injection, schedule: Q01DX001 (ip), vehicle: other) 93 % of control; (dose: 200.0 mg/kg/injection, schedule: Q01DX001 (ip), vehicle: other) 98 % of control; (dose: 400.0 mg/kg/injection, schedule: Q01DX001 (ip), vehicle: other) 96 % of control.

Take `NNCCO`: the T/C reads like this: (dose: 25.0 mg/kg/injection, schedule: Q01DX009 (ip), vehicle: saline with Tween-80) 97 % of control; (dose: 25.0 mg/kg/injection, schedule: Q04DX002 (ip), vehicle: saline with Tween-80) 94 % of control; (dose: 50.0 mg/kg/injection, schedule: Q01DX009 (ip), vehicle: saline with Tween-80) 106 % of control; under setting [10], 105 % of control; under setting [11], 106 % of control.

Turning to `Cc1ccc(C)c(NC(=O)N(Cc2ccccc2)Cc2ccccc2)c1`, the T/C under setting [4] was 94 % of control, the T/C under setting [6] was 91 % of control and the T/C under setting [8] was 96 % of control.

For `O=C(OCC1OCOC(COC(=O)c2ccccc2)C(OC(=O)c2ccccc2)C1OC(=O)c1ccccc1)c1ccccc1` (stereo not given), the T/C under setting [10] is 88 % of control.

For `CC(C)c1ccc(/C=C/C(=O)c2ccc(F)cc2)cc1`, the T/C is 90 % of control under setting [12]; 97 % of control under setting [11]; 90 % of control under setting [13]; 86 % of control (dose: 200.0 mg/kg/injection, schedule: Q04DX002 (ip), vehicle: saline with Tween-80); 93 % of control under setting [14]; 97 % of control (dose: 400.0 mg/kg/injection, schedule: Q04DX002 (ip), vehicle: saline with Tween-80).

As to `CC1=C2C(=C(CBr)OS1(=O)=O)C(=O)c1ccccc12`, the T/C under setting [12] was 92 % of control; the T/C (dose: 100.0 mg/kg/injection, schedule: Q04DX003 (ip), vehicle: saline with Tween-80) was 96 % of control; the T/C under setting [13] was 92 % of control; the T/C (dose: 200.0 mg/kg/injection, schedule: Q04DX003 (ip), vehicle: saline with Tween-80) was 103 % of control; the T/C under setting [14] was 95 % of control; the T/C (dose: 400.0 mg/kg/injection, schedule: Q04DX003 (ip), vehicle: saline with Tween-80) is 94 % of control.

On to `c1ccc2c(N=NSc3ncnc4nc[nH]c34)c3ccccc3nc2c1`, for which the T/C is 105 % of control (dose: 5.0 mg/kg/injection, schedule: Q01DX001 (ip), vehicle: carboxymethylcellulose (CMC)); 115 % of control (dose: 10.0 mg/kg/injection, schedule: Q01DX001 (ip), vehicle: carboxymethylcellulose (CMC)); 98 % of control (dose: 20.0 mg/kg/injection, schedule: Q01DX001 (ip), vehicle: carboxymethylcellulose (CMC)); 107 % of control (dose: 40.0 mg/kg/injection, schedule: Q01DX001 (ip), vehicle: carboxymethylcellulose (CMC)).

With `COC1C(O)C(CO)OC1n1cnc2c(=S)nc(N)[nH]c21` (stereo not given), the T/C (dose: 266.0 mg/kg/injection, schedule: Q01DX001 (ip), vehicle: carboxymethylcellulose (CMC)) is 153 % of control; the T/C (dose: 400.0 mg/kg/injection, schedule: Q01DX001 (ip), vehicle: carboxymethylcellulose (CMC)) is 157 % of control; the T/C (dose: 600.0 mg/kg/injection, schedule: Q01DX001 (ip), vehicle: carboxymethylcellulose (CMC)) is 153 % of control.

Take `O=C(O)c1cc(=O)c(O)c2c(O)c(O)c(O)cc2c1`: the T/C is 103 % of control under setting [1] and 91 % of control under setting [2].

As for `CN1CCC(=C2c3ccccc3C=Cc3ccccc32)CC1`, the T/C is, setting by setting: (dose: 6.25 mg/kg/injection, schedule: Q01DX009 (ip), vehicle: saline) 95 % of control; (dose: 12.5 mg/kg/injection, schedule: Q01DX009 (ip), vehicle: saline) 90 % of control; (dose: 25.0 mg/kg/injection, schedule: Q01DX009 (ip), vehicle: saline) 95 % of control; (dose: 25.0 mg/kg/injection, schedule: Q04DX003 (ip), vehicle: saline) 96 % of control; under setting [9], 98 % of control; (dose: 100.0 mg/kg/injection, schedule: Q04DX003 (ip), vehicle: saline) 102 % of control.

For `CC(=O)Nc1cc(C(=O)Nc2ccc(C)cc2C)ccc1C`, the T/C was 92 % of control under setting [3], 92 % of control under setting [5] and 92 % of control under setting [7].
